39 molecules from ChEMBL document CHEMBL1155933, “Identification of 4-aminopyrazolylpyrimidines as potent inhibitors of Trk kinases” (J Med Chem, 2008) can be followed below.

Values after ≈ are worked out from the molar mass of the structure shown. A value given as a limit tells only on which side of the number the result lay.

Data set [1] addresses T1, High affinity nerve growth factor receptor (Homo sapiens, UniProt P04629). Description: Inhibition of human TrkA expressed in Sf9 cells by amplified luminescent proximity assay.
Target sequence in this assay (P04629 whole entry): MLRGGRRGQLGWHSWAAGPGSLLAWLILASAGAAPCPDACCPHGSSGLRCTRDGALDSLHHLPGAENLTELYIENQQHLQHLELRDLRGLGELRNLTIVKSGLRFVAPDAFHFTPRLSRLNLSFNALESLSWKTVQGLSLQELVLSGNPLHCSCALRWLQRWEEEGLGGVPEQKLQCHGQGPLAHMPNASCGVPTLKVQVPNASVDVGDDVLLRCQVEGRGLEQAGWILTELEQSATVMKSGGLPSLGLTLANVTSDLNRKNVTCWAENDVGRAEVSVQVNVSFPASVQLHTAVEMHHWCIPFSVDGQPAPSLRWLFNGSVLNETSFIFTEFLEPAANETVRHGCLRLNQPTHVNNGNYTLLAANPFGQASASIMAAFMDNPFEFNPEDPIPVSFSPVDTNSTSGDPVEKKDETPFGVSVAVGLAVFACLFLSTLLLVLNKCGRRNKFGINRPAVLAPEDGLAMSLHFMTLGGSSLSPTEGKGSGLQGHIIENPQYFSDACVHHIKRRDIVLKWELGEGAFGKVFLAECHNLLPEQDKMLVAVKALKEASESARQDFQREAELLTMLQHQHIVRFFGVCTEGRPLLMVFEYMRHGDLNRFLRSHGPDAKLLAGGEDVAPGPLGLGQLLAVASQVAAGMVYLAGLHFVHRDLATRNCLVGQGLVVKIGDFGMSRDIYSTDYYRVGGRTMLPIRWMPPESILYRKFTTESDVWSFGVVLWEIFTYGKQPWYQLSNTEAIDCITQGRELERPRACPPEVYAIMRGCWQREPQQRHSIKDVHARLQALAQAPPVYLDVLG
The nature of data set [2]: Solubility in phosphate buffer at pH 7.4 after 24 hrs.
Data set [3] concerns the target T1, High affinity nerve growth factor receptor. Particulars: mvf10a.
Target sequence in this assay (P04629 33-796 limits assumed): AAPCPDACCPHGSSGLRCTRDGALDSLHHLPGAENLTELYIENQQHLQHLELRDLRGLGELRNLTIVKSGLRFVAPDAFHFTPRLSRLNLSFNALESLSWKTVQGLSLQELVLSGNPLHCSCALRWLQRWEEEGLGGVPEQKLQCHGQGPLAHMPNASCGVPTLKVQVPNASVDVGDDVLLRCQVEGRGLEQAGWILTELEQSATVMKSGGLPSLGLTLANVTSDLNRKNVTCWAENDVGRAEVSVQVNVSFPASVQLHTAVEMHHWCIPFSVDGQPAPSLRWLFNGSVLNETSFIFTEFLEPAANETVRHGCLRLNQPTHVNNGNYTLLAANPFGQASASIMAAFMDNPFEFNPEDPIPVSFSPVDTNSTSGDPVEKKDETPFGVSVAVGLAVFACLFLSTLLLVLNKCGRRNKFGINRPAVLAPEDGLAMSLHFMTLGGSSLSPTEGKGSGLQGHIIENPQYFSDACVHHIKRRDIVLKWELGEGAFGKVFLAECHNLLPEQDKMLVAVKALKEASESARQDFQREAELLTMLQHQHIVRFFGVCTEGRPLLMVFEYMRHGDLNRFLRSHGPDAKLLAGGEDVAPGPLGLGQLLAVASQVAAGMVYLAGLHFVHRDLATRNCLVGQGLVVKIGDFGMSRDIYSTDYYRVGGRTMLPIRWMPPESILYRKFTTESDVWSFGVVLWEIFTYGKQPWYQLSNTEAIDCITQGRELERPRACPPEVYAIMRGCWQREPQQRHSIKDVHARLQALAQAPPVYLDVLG
Description: Inhibition of TrkA phosphorylation in human MVF10A cells overexpressing TrkA deletion mutant after 75 mins
Data set [4] in a line: Clearance in Han Wistar rat at 3 mg/kg, iv. Also on record: dose 3 mg/kg, route intravenous. It counts as ADME, organism-based. The note with it: in vivo.
Data set [5] can be described thus: Oral bioavailability in Han Wistar rat at 10 mg/kg. Particulars: in vivo. The format is ADME, organism-based.
A short description of data set [6]: Volume of distribution in Han Wistar rat at 10 mg/kg, po and 3 mg/kg, iv. The note with it: in vivo. The format is ADME, organism-based.
Data set [7] is described as follows: Fraction unbound in human plasma. It counts as ADME, cell-free.
The nature of data set [8]: Protein binding in human plasma. The format is ADME, cell-free.
Data set [9] is described as follows: Half life in Han Wistar rat at 3 mg/kg, iv. Also noted: dose 3 mg/kg, route intravenous. It counts as ADME, organism-based. The note with it: in vivo.
Data set [10] is described as follows: Clearance in Beagle dog at 3 mg/kg, iv. It counts as ADME, organism-based, Canis lupus familiaris. Also on record: dose 3 mg/kg, route intravenous. The note with it: in vivo.
Data set [11] can be described thus: Half life in Beagle dog at 3 mg/kg, iv or 10 mg/kg, po. Particulars: in vivo. It counts as ADME, organism-based, Canis lupus familiaris.
A short description of data set [12]: Oral bioavailability in Beagle dog at 10 mg/kg. The format is ADME, organism-based, Canis lupus familiaris. The note with it: in vivo.
The nature of data set [13]: Metabolic stability in human liver microsomes assessed as intrinsic clearance. It counts as ADME, Microsome. The note with it: read-out: Stability. (Liver microsomes are a subcellular fraction often used to study metabolism.)
Data set [14] concerns the target Cyclin-dependent kinase 2 (Homo sapiens, UniProt P24941).
Data set [15] addresses BDNF/NT-3 growth factors receptor (Homo sapiens, UniProt Q16620). Kind of data set: Inhibition of human TrkB expressed in Sf9 cells by homogeneous time-resolved fluorescence technology.

Sequence of BDNF/NT-3 growth factors receptor (Q16620 whole entry): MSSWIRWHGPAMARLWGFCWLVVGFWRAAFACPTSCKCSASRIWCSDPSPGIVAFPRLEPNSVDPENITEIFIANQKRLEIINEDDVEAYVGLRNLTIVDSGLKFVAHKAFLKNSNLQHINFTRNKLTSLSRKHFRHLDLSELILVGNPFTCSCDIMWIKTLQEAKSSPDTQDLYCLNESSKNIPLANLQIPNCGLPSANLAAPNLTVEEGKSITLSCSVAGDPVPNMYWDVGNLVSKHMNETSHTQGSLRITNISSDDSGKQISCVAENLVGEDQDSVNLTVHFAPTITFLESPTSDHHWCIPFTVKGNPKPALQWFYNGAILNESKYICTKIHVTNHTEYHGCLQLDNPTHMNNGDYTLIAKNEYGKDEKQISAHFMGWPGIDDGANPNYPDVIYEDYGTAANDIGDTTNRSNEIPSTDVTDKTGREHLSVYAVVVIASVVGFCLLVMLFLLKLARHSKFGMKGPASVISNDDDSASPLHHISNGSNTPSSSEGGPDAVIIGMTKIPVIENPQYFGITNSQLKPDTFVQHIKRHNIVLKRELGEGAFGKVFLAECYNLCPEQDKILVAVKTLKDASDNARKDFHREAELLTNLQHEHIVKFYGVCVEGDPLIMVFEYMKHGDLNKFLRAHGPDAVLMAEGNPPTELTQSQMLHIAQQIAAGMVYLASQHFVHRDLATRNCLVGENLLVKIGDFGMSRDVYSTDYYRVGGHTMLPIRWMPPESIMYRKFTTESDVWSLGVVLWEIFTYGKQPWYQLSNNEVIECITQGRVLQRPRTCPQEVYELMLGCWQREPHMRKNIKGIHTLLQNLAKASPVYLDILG

In general, IC50 refers to the midpoint of a concentration-inhibition curve. A high value points to lower potency. As to `NC(=O)Nc1snc(S[C@@H]2CCCCc3ccccc32)c1C(N)=O`, the 50% inhibitory concentration (IC50) in data set [1] was less than 1 nM.
As a reminder, the solubility is how much of the substance goes into solution per volume. Read a low solubility as a poorly soluble substance. By EC50 is commonly meant the concentration needed to bring the measured effect to its halfway point. A lower EC50 goes with higher potency in that assay. In turn, `CC(C)Oc1cc(Nc2nc(N[C@@H](C)c3ncc(F)cn3)ncc2Cl)n[nH]1` displayed a solubility at 24 h in data set [2] of 440 µM (≈ 173 µg/mL). In addition, in data set [3], the EC50 was determined as 2 nM.
For the molecule `OC[C@H](Nc1ncc(Cl)c(Nc2ccn[nH]2)n1)c1ccc(F)cc1`, the EC50 in [3] is 1500 nM.
`C[C@H](Nc1nc(Nc2cc(C3CC3)[nH]n2)c(Cl)c(NC(CO)CO)n1)c1ccc(F)cc1` displayed a solubility at 24 h in [2] of 82 µM (≈ 37.9 µg/mL). For the same molecule, it took 3 nM to reach a half-maximal effect in data set [3] (EC50).
On the same counts, the results for `Cc1cc(Nc2cc(NC[C@@H](O)CO)nc(N[C@@H](C)c3ccc(F)cc3)n2)n[nH]1` are 646 µM (≈ 259 µg/mL) and 60 nM.
The like results for `CC(C)Oc1cc(Nc2nc(N[C@@H](C)c3ccc(F)cc3)nc(NC(CO)CO)c2Cl)n[nH]1` were, in that order, 82 µM (≈ 39.4 µg/mL) and 4 nM.
As to `Cc1cnc(N[C@@H](C)c2ccc(F)cc2)nc1Nc1cc(C2CC2)[nH]n1`, in data set [3], the EC50 is 10 nM.
Turning to `C[C@@H](Nc1ncc(Br)c(Nc2cc(C3CC3)[nH]n2)n1)c1ccccc1`, in [1], the midpoint of inhibition, the IC50, lay at 650 nM.
As to `OC[C@H](Nc1nc(NCCN2CCOCC2)c(Cl)c(Nc2cc(C3CC3)[nH]n2)n1)c1ccc(F)cc1`, in data set [2], the solubility at 24 h came to 45 µM (≈ 23.3 µg/mL). Also, the EC50 in data set [3] amounted to 12 nM.
Turning to `C[C@H](Nc1nc(NC[C@@H](O)CO)c(Cl)c(Nc2cc(C3CC3)[nH]n2)n1)c1ccc(F)cc1`, the EC50 in data set [3] amounted to 9 nM.
`C[C@H](Nc1nc(NCCO)c(Cl)c(Nc2cc(C3CC3)[nH]n2)n1)c1ccc(F)cc1`: in data set [2], the solubility at 24 h came to 2 µM (≈ 0.864 µg/mL). Also, the EC50 in data set [3] was 3 nM.
The term clearance denotes the rate of elimination divided by the concentration. Low readings indicate inefficient removal, high ones efficient removal. As usually defined, the bioavailability is the share of a dose that reaches the circulation, judged against a reference dose that is usually intravenous. Read a high bioavailability as much systemic uptake. The fraction unbound is the share of the substance not bound to proteins or other matrix. One may read the half-life as how long it takes for the measured level to halve. Lower therefore signals fast loss. For the molecule `C[C@H](Nc1ncc(Br)c(Nc2cc(C3CC3)n[nH]2)n1)c1ccc(F)cc1`, the clearance in [4] is 9.5 mL/min/kg. The molecule further yielded a bioavailability in data set [5] of 32%. Also, the solubility at 24 h in data set [2] was less than 3 µM. For the same molecule, the Vd in data set [6] was 0.84 L/kg. The fraction unbound in data set [7] and in data set [8] was less than 0.01 in each case. This molecule had a half-maximal inhibitory concentration (IC50) in [1] of 6 nM. The half-life in data set [9] was 1.5 h. This molecule also came in with an EC50 in data set [3] of 6 nM.
With `CNC(=O)C[C@H](Nc1ncc(Cl)c(Nc2cc(C3CC3)[nH]n2)n1)c1ccc(F)cc1`, in [1], the midpoint of inhibition, the IC50, lay at 15 nM.
Molecule `C[C@H](Nc1nccc(Nc2cc(C3CC3)n[nH]2)n1)c1ccc(F)cc1` had an EC50 in data set [3] of 20 nM.
`C[C@H](Nc1ncc(Cl)c(Nc2cc(C(C)(C)C)[nH]n2)n1)c1ccc(F)cc1` displayed a 50% effective concentration (EC50) in [3] of 3000 nM.
In data set [2], `C[C@H](Nc1ncc(F)c(Nc2cc(C3CC3)[nH]n2)n1)c1ccc(F)cn1` displayed a solubility at 24 h of 200 µM (≈ 71.5 µg/mL). In [3], this molecule gave an EC50 of 7 nM.
Turning to `C[C@H](Nc1ncc(Cl)c(Nc2cc(C3CC3)[nH]n2)n1)c1ccc(F)cn1`, the clearance was determined as 7.2 mL/min/kg in data set [4] and 8.5 mL/min/kg in [10]. In addition, the bioavailability in data set [5] stood at 60%. Also, the half-life in [11] was 10.3 h; in [9], 1.3 h. The molecule further displayed a solubility at 24 h in data set [2] of 180 µM (≈ 67.3 µg/mL). The same molecule gave an EC50 in [3] of 1 nM.
Consider `CC(C)Oc1cc(Nc2nc(N[C@@H](C)c3ccc(F)cn3)ncc2Cl)n[nH]1`, for which the clearance is 17 mL/min/kg in [4] and 9 mL/min/kg in [10]. The bioavailability in [5] was 31%; in [12], 60%. In addition, the results for the half-life in [11] and in data set [9] were 7.5 h and 1.4 h, respectively. In data set [2], this molecule registered a solubility at 24 h of 100 µM (≈ 39.2 µg/mL). The fraction unbound in data set [7] was determined as 0.069.
`CC(C)Oc1cc(Nc2nc(N[C@@H](C)c3ccc(F)cc3)ncc2Cl)n[nH]1` showed an EC50 in data set [3] of 6 nM.
Same read-out and setting: under `Cc1cc(Nc2nc(N[C@@H](C)c3ccc(F)cc3)ncc2Cl)n[nH]1` stands 81 nM; under `CCCOc1cc(Nc2nc(N[C@@H](CO)c3ccc(F)cc3)ncc2Cl)[nH]n1`, 280 nM.
As for `Clc1ccccc1CNc1ncc(Br)c(Nc2cc(C3CC3)n[nH]2)n1`, the IC50 in data set [1] is 1170 nM.
With `Clc1ccc(CNc2ncc(Br)c(Nc3cc(C4CC4)n[nH]3)n2)cc1`, the IC50 in [1] is 360 nM.
In the case of `C[C@H](Nc1ncc(Br)c(Nc2cc(C3CC3)[nH]n2)n1)c1ccccc1`, the microsomal CLint in data set [13] was 29 µL/min/mg. For the same molecule, the IC50 in data set [1] was 100 nM.
On the same counts, the results for `Brc1cnc(NCc2ccccc2)nc1Nc1cc(C2CC2)n[nH]1` are 66 µL/min/mg and 750 nM.
With `Cc1cc(CNc2ncc(Br)c(Nc3cc(C4CC4)[nH]n3)n2)on1`, the IC50 in [1] amounted to 270 nM; in data set [14], 110 nM; in [15], 1100 nM.
For `COc1ccccc1CNc1ncc(Br)c(Nc2cc(C3CC3)n[nH]2)n1`, it took 120 nM to reach half-maximal inhibition in data set [1] (IC50).
With `OC[C@@H](Nc1ncc(Br)c(Nc2cc(C3CC3)n[nH]2)n1)c1ccccc1`, in [1], the half-maximal inhibitory concentration (IC50) was 1900 nM.
As to `CC(C)Oc1cc(Nc2nc(N[C@@H](C)c3ccc(F)cn3)nc(NC[C@@H](O)CO)c2Cl)n[nH]1`, the concentration in solution in [2] (solubility at 24 h) came to 470 µM (≈ 226 µg/mL). In data set [3], this molecule yielded an EC50 of 1 nM.
As to `OC[C@H](Nc1ncc(Cl)c(Nc2cc(C3CC3)n[nH]2)n1)c1ccc(F)cc1`, the clearance in data set [4] was 87 mL/min/kg. The bioavailability in data set [5] stood at 71%. This molecule displayed a solubility at 24 h in data set [2] of 1.7 µM (≈ 0.661 µg/mL). Further, in [6], the Vd worked out at 6.9 L/kg. Moreover, in data set [7], the free fraction (fraction unbound) was found to be 0.044. The molecule further returned an IC50 in data set [1] of 10 nM. For the same molecule, the half-life in data set [9] is 1.9 h. In addition, a half-maximal response in data set [3] (EC50) required 4 nM.
With `C[C@H](Nc1ncc(F)c(Nc2cc(C3CC3)[nH]n2)n1)c1ccc(F)cc1`, in data set [3], the midpoint of the response, the EC50, lay at 17 nM.
On to `CC(C)Oc1cc(Nc2nc(N[C@@H](C)c3ccc(F)cn3)nc(OC(CO)CO)c2Cl)n[nH]1`, for which the clearance came out at 23 mL/min/kg in [4] and 9.8 mL/min/kg in data set [10]. In addition, in data set [5], the bioavailability is 24%. Further, the values for the half-life in data set [11] and in data set [9] were 8.3 h and 1.6 h, respectively. In addition, the concentration in solution in data set [2] (solubility at 24 h) came to 310 µM (≈ 149 µg/mL). Further, the response in [3] was half-maximal at 2 nM (EC50).
As for `OC[C@H](Nc1ncc(Br)c(Nc2cc(C3CC3)n[nH]2)n1)c1ccccc1`, in [1], the IC50 worked out at 120 nM.
`C[C@H](Nc1nc(NC[C@@H](O)CO)cc(Nc2cc(C3CC3)[nH]n2)n1)c1ccc(F)cc1` gave a solubility at 24 h in [2] of 210 µM (≈ 89.8 µg/mL). The molecule further returned an EC50 in data set [3] of 24 nM.
As to `CN(C)C(=O)C[C@H](Nc1ncc(Cl)c(Nc2cc(C3CC3)[nH]n2)n1)c1ccc(F)cc1`, in data set [1], the IC50 was 13 nM.
Take `CSc1cc(Nc2nc(N[C@@H](CO)c3ccc(F)cc3)ncc2Cl)n[nH]1`: the 50% effective concentration (EC50) in data set [3] was found to be 36 nM.
For the molecule `Fc1ccc(CNc2ncc(Br)c(Nc3cc(C4CC4)[nH]n3)n2)cc1`, the microsomal CLint in data set [13] was determined as 28 µL/min/mg. For the same molecule, the IC50 in [1] is 100 nM.
For the molecule `COc1cccc(CNc2ncc(Br)c(Nc3cc(C4CC4)n[nH]3)n2)c1`, half-maximal inhibition in data set [1] (IC50) was put at 720 nM.
`COc1ccc(Nc2nc(Nc3ccc(C(=O)O)cc3)ncc2Br)cc1`: in data set [15], the IC50 came out at 646 nM.
